Columns and labels:
Type in all cases: cell-based
[1] = HCV Replicon 1B CC50, calcein AM (Example Q); settings: HCV replicon cells (1B), calcein AM fluorescence, read-out: HCV Replicon 1B CC50 (nM) (per Ex. Q)
Method: Compounds were serially diluted in ten steps of 1:3 dilutions in 384-well plates. All serial dilutions were performed in four replicates per compound within the same 384-well plate. An HCV protease inhibitor ITMN-191 at […] was added as a control of 100% inhibition of HCV replication while puromycin at 10 mM was included as a control of 100% cytotoxicity. To each well of a black polystyrene 384-well plate (Greiner Bio-one, Monroe, NC), 90 μL of cell culture medium (without Geneticin) containing 2000 suspended HCV replicon cells was added with a Biotek μFlow workstation. For compound transfer into cell culture plates, 0.4 μL of compound solution from the compound serial dilution plate was transferred to the cell culture plate on a Biomek FX workstation. The DMSO concentration in the final assay wells was 0.44%. The plates were incubated for 3 days at 37° C. with 5% CO2 and 85% humidity. The HCV replicon assay was a multiplex assay, able to assess both cytotoxicity and antireplicon activity from the same well. The CC50 assay was performed first. The media in the 384-well cell culture plate was aspirated, and the wells were washed four times with 100 μL of PBS each, using a Biotek ELX405 plate washer. A volume of 50 μL of a solution containing 400 nM calcein AM (Anaspec, Fremont, CA) in 1×PBS was added to each well of the plate with a Biotek μFlow workstation. The plate was incubated for 30 min at room temperature before the fluorescence signal (excitation 490 nm, emission 520 nm) was measured with a Perkin-Elmer Envision plate reader. The EC50 assay was performed in the same wells as the CC50 assay. The calcein-PBS solution in the 384-well cell culture plate was aspirated with a Biotek ELX405 plate washer. A volume of 20 μL of Dual-Glo luciferase buffer (Promega, Madison, WI) was added to each well of the plate with a Biotek μFlow Workstation. The plate was incubated for 10 min at room temperature. A volume of 20 μL of a solution containing a 1:100 mixture of Dual-Glo Stop & Glo substrate (Promega, Madison, WI) and Dual-Glo Stop & Glo buffer (Promega, Madison, WI) was added to each well of the plate with a Biotek μFlow Workstation. The plate was then incubated at room temperature for 10 min before the luminescence signal was measured with a Perkin-Elmer Envision Plate Reader.

[2] = system: dengue virus type 2 in Huh7 hepatoblastoma cells; experiment: Dengue Virus-2 Huh-7 EC50 (Example W); settings: MOI of 0.07, CPE, neutral red dye, read-out: Dengue Virus-2 Huh-7 EC50 (nM) (per Ex. W)
Method: Huh7 hepatoblastoma cells were seeded onto 96-well plates and incubated at 37° C. with 5% CO2 overnight. The plates were seeded at a cell concentration that will yield >70% confluent monolayers in each well after overnight incubation. Eight 3-fold serial dilutions of compounds were diluted in test media (MEM supplemented with 2% FBS and 50 μg/mL gentamicin). The highest test compound concentration was 50 μg/mL. 100 μL of each concentration was added to 5 test wells on the 96-well plate. Of these 5 test wells, 3 wells of each dilution were infected with dengue virus type 2, diluted in test media (approximately 2000 CCID50 per well for an MOI of 0.07). Test medium (100 μL) with no virus was added to 2 wells to represent the uninfected cytotoxicity controls. Six additional infected wells received 100 μL media alone as untreated virus controls. Further, 100 μL of media alone was added to 6 uninfected wells to serve as uninfected, untreated controls. Cultures were incubated at 37° C.+5% CO2 until >80% CPE is observed. After cytopathic effect (CPE) is observed microscopically, 0.011% neutral red dye was added for approximately 2 hours. The neutral red dye was removed and wells were rinsed once with PBS to remove residual, unincorporated dye. A 50:50 Sorensen citrate buffer/ethanol solution was added and incubated at room temperature for >30 minutes with agitation, followed by measurement of neutral red dye using a spectrophotometer at 540 nm. The resulting optical density measurement was converted to percent signal of the infected, untreated cell control normalizing to virus controls. EC50 and CC50 values were determined by linear regression analysis.

[3] = system: Recombinant Respiratory Syncytial virus strain A2 containing the firefly luciferase reporter (RSV-Fluc) in NHBE cells; experiment: RSV NHBE FLuc EC50 (Example I); settings: human respiratory syncytial virus, 72 h, read-out: RSV NHBE FLuc EC50 (nM) (per Ex. I)
From the text: Normal human bronchial epithelial (NHBE) cells are purchased from Lonza (Walkersville, MD Cat #CC-2540) and maintained in Bronchial Epithelial Cell Growth Medium (BEGM) (Lonza, Walkersville, MD, Cat #CC-3170) with all provided supplements in the BulletKit. Cells are passaged 2-3 times per week to maintain sub-confluent densities and are used for experiments at passages 2-4.
Recombinant Respiratory Syncytial virus strain A2 containing the firefly luciferase reporter between the P and M genes (RSV-Fluc, 6.3×10^6 TCID50/mL) is purchased from Viratree (Durham, NC, Cat #R^145).
NHBE cells (5×10^3/well) are seeded in 100 μL white wall/clear bottom 96-well plates (Corning) with culture medium and are incubated for 24 hours at 37° C. with 5% CO2. On the following day, three-fold serial dilutions of compounds prepared in DMSO are added to the wells using the HP D300e digital dispenser with normalization to the highest concentration of DMSO in all wells. The cells are then infected with RSV-Fluc diluted with BEGM media at an MOI of 0.1 for a final volume of 200 μL media/well. Uninfected and untreated wells are included as controls to determine compound efficacy against RSV-Fluc. Following incubation with compound and virus for three days at 37° C. with 5% CO2, 100 μL of culture supernatant is removed from each well and replaced with 100 μL of ONE-Glo luciferase reagent (Promega, Madison, WI, Cat #E6110). The plates are gently mixed by rocking for 10 minutes at 21° C. and luminescence signal is measured using an Envision plate reader (PerkinElmer). Values are normalized to the uninfected and infected DMSO controls (0% and 100% infection, respectively). Non-linear regression analysis is applied to determine the compound concentration at which 50% luminescence signal is reduced (EC50) using the XLfit4 add-in for MICROSOFT®EXCEL®. All experiments are performed in duplicate with two technical repeats each.

CCCCCCCCCCCCCCC[C@H](COP(=O)(O)OC[C@@]1(C#N)O[C@@H](c2ccc3c(N)ncnn23)[C@H](O)[C@@H]1O)OCc1cc(F)cc(C#N)c1 [Compound 80, ((2R,3S,4R,5S)-5-(4-aminopyrrolo[2,1-f][1,2,4]triazin-7-yl)-2-cyano-3,4-dihydroxytetrahydrofuran-2-yl)methyl ((R)-2-((3-cyano-5-fluorobenzyl)oxy)heptadecyl) hydrogen phosphate]
CC50 at 3 days [1]: > 44400 nM

CCCCCCCCCCCCCCCCCCC[C@H](COP(=O)(O)OC[C@@]1(C#N)O[C@@H](c2ccc3c(N)ncnn23)[C@H](O)[C@@H]1O)Oc1cc(OC)c(C#N)c(OC)c1 [Compound 39, ((2R,3S,4R,5S)-5-(4-aminopyrrolo[2,1-f][1,2,4]triazin-7-yl)-2-cyano-3,4-dihydroxytetrahydrofuran-2-yl)methyl ((R)-2-(4-cyano-3,5-dimethoxyphenoxy)henicosyl) hydrogen phosphate]
EC50 [2]: 9100 nM

CCCCCCCCCCCCCCCCCCC[C@H](COP(=O)(O)OC[C@@]1(C#N)O[C@@H](c2ccc3c(N)ncnn23)[C@H](O)[C@@H]1O)Oc1ccc(C#N)c(OC(C)C)c1 [Compound 38, ((2R,3S,4R,5S)-5-(4-aminopyrrolo[2,1-f][1,2,4]triazin-7-yl)-2-cyano-3,4-dihydroxytetrahydrofuran-2-yl)methyl ((R)-2-(4-cyano-3-isopropoxyphenoxy)henicosyl) hydrogen phosphate]
EC50 [3]: 23 nM
EC50 [2]: 2900 nM

CCCCCCCCCCCCCCCCCCOC[C@H](COP(=O)(O)OC[C@@]1(C#N)O[C@@H](c2ccc3c(N)ncnn23)[C@H](O)[C@@H]1O)OCc1ccc(C#N)c(-n2cncn2)c1 [Compound 16, ((2R,3S,4R,5S)-5-(4-aminopyrrolo[2,1-f][1,2,4]triazin-7-yl)-2-cyano-3,4-dihydroxytetrahydrofuran-2-yl)methyl ((R)-2-((4-cyano-3-(1H-1,2,4-triazol-1-yl)benzyl)oxy)-3-(octadecyloxy)propyl) hydrogen phosphate]
EC50 [3]: < 6 nM
EC50 [2]: 3900 nM

CCCCCCCCCCCCCCOC[C@H](COP(=O)(O)OC[C@@]1(C#N)O[C@@H](c2ccc3c(N)ncnn23)[C@H](O)[C@@H]1O)Oc1cc(C#N)ccn1 [Compound 69, ((2R,3S,4R)-5-(4-aminopyrrolo[2,1-f][1,2,4]triazin-7-yl)-2-cyano-3,4-dihydroxytetrahydrofuran-2-yl)methyl ((R)-2-((4-cyanopyridin-2-yl)oxy)-3-(tetradecyloxy)propyl) hydrogen phosphate]
EC50 [3]: 29 nM

CCCCCCCCCCCCCCCCCCC[C@H](COP(=O)(O)OC[C@@]1(C#N)O[C@@H](c2ccc3c(N)ncnn23)[C@H](O)[C@@H]1O)OCc1ccc(C#N)c(OC(C)C)c1 [Compound 28, ((2R,3S,4R,5S)-5-(4-aminopyrrolo[2,1-f][1,2,4]triazin-7-yl)-2-cyano-3,4-dihydroxytetrahydrofuran-2-yl)methyl ((R)-2-((4-cyano-3-isopropoxybenzyl)oxy)henicosyl) hydrogen phosphate]
EC50 [3]: 28 nM
EC50 [2]: 9500 nM

CCCCCCCCCCCCCCCCCCCC[C@H](COP(=O)(O)OC[C@@]1(C#N)O[C@@H](c2ccc3c(N)ncnn23)[C@H](O)[C@@H]1O)OCc1cc(F)cc(C#N)c1 [Compound 34, ((2R,3S,4R)-5-(4-aminopyrrolo[2,1-f][1,2,4]triazin-7-yl)-2-cyano-3,4-dihydroxytetrahydrofuran-2-yl)methyl ((R)-2-((3-cyano-5-fluorobenzyl)oxy)docosyl) hydrogen phosphate]
EC50 [2]: 15000 nM

CCCCCCCCCCCCCCCCCCC[C@H](COP(=O)(O)OC[C@@]1(C#N)O[C@@H](c2ccc3c(N)ncnn23)[C@H](O)[C@@H]1O)OCc1cc(F)cc(C#N)c1 [Compound 25, ((2R,3S,4R,5S)-5-(4-aminopyrrolo[2,1-f][1,2,4]triazin-7-yl)-2-cyano-3,4-dihydroxytetrahydrofuran-2-yl)methyl ((R)-2-((3-cyano-5-fluorobenzyl)oxy)henicosyl) hydrogen phosphate]
EC50 [3]: 98 nM
EC50 [2]: 9200 nM

CCCCCCCCCCCCCCOC[C@H](COP(=O)(O)OC[C@@]1(C#N)O[C@@H](c2ccc3c(N)ncnn23)[C@H](O)[C@@H]1O)OCc1ccc(C#N)cc1F [Compound 75, ((2R,3S,4R,5S)-5-(4-aminopyrrolo[2,1-f][1,2,4]triazin-7-yl)-2-cyano-3,4-dihydroxytetrahydrofuran-2-yl)methyl ((R)-2-((4-cyano-2-fluorobenzyl)oxy)-3-(tetradecyloxy)propyl) hydrogen phosphate]
EC50 [3]: < 10.9 nM
EC50 [2]: 23000 nM

CCCCCCCCCCCCCCCCCCOCC(COc1cc(F)cc(C#N)c1)COP(=O)(O)OC[C@@]1(C#N)O[C@@H](c2ccc3c(N)ncnn23)[C@H](O)[C@@H]1O (stereo partly drawn) [Compound 43, ((2R,3S,4R,5S)-5-(4-aminopyrrolo[2,1-f][1,2,4]triazin-7-yl)-2-cyano-3,4-dihydroxytetrahydrofuran-2-yl)methyl (3-(3-cyano-5-fluorophenoxy)-2-((octadecyloxy)methyl)propyl) hydrogen phosphate]
EC50 [3]: 129 nM
EC50 [2]: 9700 nM

CCCCCCCCCCCCCCCCCCOC[C@H](COP(=O)(O)OC[C@@]1(C#N)O[C@@H](c2ccc3c(N)ncnn23)[C@H](O)[C@@H]1O)Oc1ccc(C#N)c(OC(C)C)c1 [Compound 23, ((2R,3S,4R,5S)-5-(4-aminopyrrolo[2,1-f][1,2,4]triazin-7-yl)-2-cyano-3,4-dihydroxytetrahydrofuran-2-yl)methyl ((R)-2-(4-cyano-3-isopropoxyphenoxy)-3-(octadecyloxy)propyl) hydrogen phosphate]
EC50 [3]: 16 nM
EC50 [2]: 8600 nM

CCCCCCCCCCCCCCCCCCOC[C@H](COP(=O)(O)OC[C@@]1(C#N)O[C@@H](c2ccc3c(N)ncnn23)[C@H](O)[C@@H]1O)OCc1ccc(C#N)nc1 [Compound 19, ((2R,3S,4R,5S)-5-(4-aminopyrrolo[2,1-f][1,2,4]triazin-7-yl)-2-cyano-3,4-dihydroxytetrahydrofuran-2-yl)methyl ((R)-2-((6-cyanopyridin-3-yl)methoxy)-3-(octadecyloxy)propyl) hydrogen phosphate]
EC50 [3]: 98 nM
EC50 [2]: 6600 nM
